The results in this text go back to article PMC5218480 (PLoS ONE, 2017).

This experiment concerns MV-4-11 cells. The experiment can be described thus: Gene expression microarray analysis (Affymetrix PrimeView) and GSEA. Type of experiment: cell-based, human. The arrangement: RFU PODN (11730768_x_at) / Fold change /veh PODN (11730768_x_at) / RFU LINC00158 (11744669_a_at) / Fold change /veh LINC00158 (11744669_a_at) / RFU DUSP10 (11751237_a_at) / Fold change /veh DUSP10 (11751237_a_at) / RFU ID3 (11757404_x_at) / Fold change /veh ID3 (11757404_x_at) / RFU PLEKHG5 (11737974_s_at) / Fold change /veh PLEKHG5 (11737974_s_at) / RFU LRRC4B (11730491_at) / Fold change /veh LRRC4B (11730491_at) / RFU GIMAP4 (11747438_a_at) / Fold change /veh GIMAP4 (11747438_a_at) / RFU KRT8 (11758183_x_at) / Fold change /veh KRT8 (11758183_x_at) / RFU CNN1 (11734310_a_at) / Fold change /veh CNN1 (11734310_a_at) / RFU VPS37D (11726825_at) / Fold change /veh VPS37D (11726825_at) / RFU C10orf10 (11716522_x_at) / Fold change /veh C10orf10 (11716522_x_at) / RFU KIR2DL2 /// KIR2DL4 /// KIR2DL5A /// KIR2DL5B /// KIR2DS1 /// KIR2DS2 /// KIR2DS3 /// KIR2DS4 /// KIR3DL3 /// KIR3DL3 /// KIR3DS1 (11738374_at) / Fold change /veh KIR2DL2 /// KIR2DL4 /// KIR2DL5A /// KIR2DL5B /// KIR2DS1 /// KIR2DS2 /// KIR2DS3 /// KIR2DS4 /// KIR3DL3 /// KIR3DL3 /// KIR3DS1 (11738374_at) / RFU C1QL1 (11718748_at) / Fold change /veh C1QL1 (11718748_at) / RFU TMPRSS4 (11747572_a_at) / Fold change /veh TMPRSS4 (11747572_a_at) / RFU HAMP (11756126_x_at) / Fold change /veh HAMP (11756126_x_at) / RFU RNFT2 (11725882_a_at) / Fold change /veh RNFT2 (11725882_a_at) / RFU NR4A2 (11747474_a_at) / Fold change /veh NR4A2 (11747474_a_at) / RFU ABCC12 (11746883_a_at) / Fold change /veh ABCC12 (11746883_a_at) / RFU TMEM136 (11760407_x_at) / Fold change /veh TMEM136 (11760407_x_at) / RFU CLDN22 /// WWC2 (11732394_at) / Fold change /veh CLDN22 /// WWC2 (11732394_at) / RFU HLA-DPB1 (11760878_x_at) / Fold change /veh HLA-DPB1 (11760878_x_at) / RFU SPINT1 (11716480_a_at) / Fold change /veh SPINT1 (11716480_a_at) / RFU GAP43 (11754022_s_at) / Fold change /veh GAP43 (11754022_s_at) / RFU A4GNT (11735810_at) / Fold change /veh A4GNT (11735810_at) / RFU PRB3 (11715151_x_at) / Fold change /veh PRB3 (11715151_x_at) / RFU TUBB4B (11761932_at) / Fold change /veh TUBB4B (11761932_at) / RFU CAPN14 (11732068_a_at) / Fold change /veh CAPN14 (11732068_a_at) / RFU TMCC2 (11721928_a_at) / Fold change /veh TMCC2 (11721928_a_at) / RFU IRGQ (11745062_a_at) / Fold change /veh IRGQ (11745062_a_at) / RFU FAM174B (11720279_a_at) / Fold change /veh FAM174B (11720279_a_at) / RFU TMPRSS4 (11748680_a_at) / Fold change /veh TMPRSS4 (11748680_a_at) / RFU FAM212B (11763350_a_at) / Fold change /veh FAM212B (11763350_a_at) / RFU PLEKHG5 (11743358_a_at) / Fold change /veh PLEKHG5 (11743358_a_at) / RFU ZSCAN30 (11745921_a_at) / Fold change /veh ZSCAN30 (11745921_a_at) / RFU CMKLR1 (11741424_a_at) / Fold change /veh CMKLR1 (11741424_a_at) / RFU LOC101060620 /// MAPK8IP1 (11723275_at) / Fold change /veh LOC101060620 /// MAPK8IP1 (11723275_at) / RFU SPTSSB (11747773_x_at) / Fold change /veh SPTSSB (11747773_x_at) / RFU PRSS12 (11739890_at) / Fold change /veh PRSS12 (11739890_at) / RFU BIN1 (11741810_x_at) / Fold change /veh BIN1 (11741810_x_at) / RFU WNT11 (11732464_a_at) / Fold change /veh WNT11 (11732464_a_at) / RFU C10orf10 (11716521_a_at) / Fold change /veh C10orf10 (11716521_a_at) / RFU C5orf56 (11738089_at) / Fold change /veh C5orf56 (11738089_at) / RFU CYB561 (11721691_x_at) / Fold change /veh CYB561 (11721691_x_at) / RFU ANKRD19P (11752326_a_at) / Fold change /veh ANKRD19P (11752326_a_at) / RFU OR2T12 /// OR2T33 /// OR2T8 (11738714_s_at) / Fold change /veh OR2T12 /// OR2T33 /// OR2T8 (11738714_s_at) / RFU VCAN (11748164_a_at) / Fold change /veh VCAN (11748164_a_at) / RFU JSRP1 (11732532_at) / Fold change /veh JSRP1 (11732532_at) / RFU KRTAP10-11 (11738290_x_at) / Fold change /veh KRTAP10-11 (11738290_x_at) / RFU MYO3A (11730013_a_at) / Fold change /veh MYO3A (11730013_a_at) / RFU EBF3 (11725865_a_at) / Fold change /veh EBF3 (11725865_a_at) / RFU CAMK2N1 (11719241_x_at) / Fold change /veh CAMK2N1 (11719241_x_at) / RFU C5orf56 (11738088_a_at) / Fold change /veh C5orf56 (11738088_a_at) / RFU OLFML3 (11715873_a_at) / Fold change /veh OLFML3 (11715873_a_at) / RFU LOC100653217 /// NTM (11731650_a_at) / Fold change /veh LOC100653217 /// NTM (11731650_a_at) / RFU MAPK11 (11762145_a_at) / Fold change /veh MAPK11 (11762145_a_at) / RFU FIZ1 (11724087_x_at) / Fold change /veh FIZ1 (11724087_x_at) / RFU OASL (11726364_x_at) / Fold change /veh OASL (11726364_x_at) / RFU SOX15 (11748057_x_at) / Fold change /veh SOX15 (11748057_x_at) / RFU CD79A (11719716_a_at) / Fold change /veh CD79A (11719716_a_at) / RFU HIST1H1D (11736915_at) / Fold change /veh HIST1H1D (11736915_at) / RFU CASKIN2 (11723855_a_at) / Fold change /veh CASKIN2 (11723855_a_at) / RFU LOC730098 (11760151_x_at) / Fold change /veh LOC730098 (11760151_x_at) / RFU OR4N2 (11742367_at) / Fold change /veh OR4N2 (11742367_at) / RFU PRRT2 (11749266_a_at) / Fold change /veh PRRT2 (11749266_a_at) / RFU SNX32 (11753110_a_at) / Fold change /veh SNX32 (11753110_a_at) / RFU CDHR5 (11726645_a_at) / Fold change /veh CDHR5 (11726645_a_at) / RFU RCAN1 (11760418_a_at) / Fold change /veh RCAN1 (11760418_a_at) / RFU FAM167A (11723789_a_at) / Fold change /veh FAM167A (11723789_a_at) / RFU FAM26E (11764081_at) / Fold change /veh FAM26E (11764081_at) / RFU ISYNA1 (11749810_s_at) / Fold change /veh ISYNA1 (11749810_s_at) / RFU ACY1 (11761880_at) / Fold change /veh ACY1 (11761880_at) / RFU 11764098_at / Fold change /veh 11764098_at / RFU SAMD14 (11745864_x_at) / Fold change /veh SAMD14 (11745864_x_at) / RFU NPB (11741838_a_at) / Fold change /veh NPB (11741838_a_at) / RFU TMPRSS6 (11731388_a_at) / Fold change /veh TMPRSS6 (11731388_a_at) / RFU KRTAP10-2 (11738614_at) / Fold change /veh KRTAP10-2 (11738614_at) / RFU ARHGAP8 /// PRR5-ARHGAP8 (11727945_x_at) / Fold change /veh ARHGAP8 /// PRR5-ARHGAP8 (11727945_x_at) / RFU KRTAP5-7 /// NADSYN1 (11734609_at) / Fold change /veh KRTAP5-7 /// NADSYN1 (11734609_at) / RFU RASL12 (11751679_a_at) / Fold change /veh RASL12 (11751679_a_at) / RFU CDKN2B (11736163_a_at) / Fold change /veh CDKN2B (11736163_a_at) / RFU PRF1 (11729649_at) / Fold change /veh PRF1 (11729649_at) / RFU, ZNF638 /// ZNF638-IT1 / Fold change vs veh, ZNF638 /// ZNF638-IT1 / RFU, PANK3 / Fold change vs veh, PANK3 / RFU, SH3YL1 / Fold change vs veh, SH3YL1 / RFU, ZEB2 / Fold change vs veh, ZEB2 / RFU, NRIP1 / Fold change vs veh, NRIP1 / RFU, PTTG1IP / Fold change vs veh, PTTG1IP / RFU, CAPN2 / Fold change vs veh, CAPN2 / RFU, MED14 / Fold change vs veh, MED14 / RFU, SNORA58 / Fold change vs veh, SNORA58 / RFU, C1orf63 / Fold change vs veh, C1orf63 / RFU, LRRFIP1 / Fold change vs veh, LRRFIP1 / RFU, NDUFAF7 / Fold change vs veh, NDUFAF7 / RFU, SLC12A2 / Fold change vs veh, SLC12A2 / RFU, IBTK / Fold change vs veh, IBTK / RFU, ESF1 / Fold change vs veh, ESF1 / Fold change vs veh, TMEM50B / RFU, TAOK1 / Fold change vs veh, TAOK1 / RFU, ACBD3 / Fold change vs veh, ACBD3 / RFU, TMA16 / Fold change vs veh, TMA16 / RFU, RWDD3 / Fold change vs veh, RWDD3 / RFU, BCAT1 / Fold change vs veh, BCAT1 / RFU, EDEM3 / Fold change vs veh, EDEM3 / RFU, TMEM33 / Fold change vs veh, TMEM33 / RFU, WDR75 / Fold change vs veh, WDR75 / RFU, AHCTF1 / Fold change vs veh, AHCTF1 / RFU, TFRC / Fold change vs veh, TFRC / RFU, ZDHHC17 / Fold change vs veh, ZDHHC17 / RFU, NOM1 / Fold change vs veh, NOM1 / RFU, ARL8B / Fold change vs veh, ARL8B / RFU, ZBTB11 / Fold change vs veh, ZBTB11 / RFU, TAMM41 / Fold change vs veh, TAMM41 / RFU, KIAA1704 /// LOC100996395 / Fold change vs veh, KIAA1704 /// LOC100996395 / RFU, ING1 / Fold change vs veh, ING1 / RFU, TRMT61B / Fold change vs veh, TRMT61B / RFU, FUBP3 / Fold change vs veh, FUBP3 / RFU, TP53 / Fold change vs veh, TP53 / RFU, TNKS2 / Fold change vs veh, TNKS2 / RFU, ZFP14 / Fold change vs veh, ZFP14 / RFU, ACTR2 / Fold change vs veh, ACTR2 / RFU, PPP3R1 / Fold change vs veh, PPP3R1 / RFU, PIK3R1 / Fold change vs veh, PIK3R1 / RFU, HNRNPA1 / Fold change vs veh, HNRNPA1 / RFU, RNF170 / Fold change vs veh, RNF170 / RFU, ZNF28 / Fold change vs veh, ZNF28 / RFU, RNGTT / Fold change vs veh, RNGTT / RFU, OGT / Fold change vs veh, OGT / RFU, BRD1 / Fold change vs veh, BRD1 / RFU, MARS / Fold change vs veh, MARS / RFU, ZNF655 / Fold change vs veh, ZNF655 / RFU, FAHD1 / Fold change vs veh, FAHD1 / RFU, BDP1 / Fold change vs veh, BDP1 / RFU, LRRCC1 / Fold change vs veh, LRRCC1 / RFU, ARID1A / Fold change vs veh, ARID1A / RFU, ZNF146 / Fold change vs veh, ZNF146 / RFU, ZNF330 / Fold change vs veh, ZNF330 / RFU, GPN3 / Fold change vs veh, GPN3 / RFU, C9orf123 / Fold change vs veh, C9orf123 / RFU, N4BP2L2 / Fold change vs veh, N4BP2L2 / RFU, ARFIP1 / Fold change vs veh, ARFIP1 / RFU, FAM179B / Fold change vs veh, FAM179B / RFU, BCL10 / Fold change vs veh, BCL10 / RFU, UHRF1BP1L / Fold change vs veh, UHRF1BP1L / RFU, BET1 / Fold change vs veh, BET1 / RFU, CNOT2 / Fold change vs veh, CNOT2 / RFU, ZNF268 / Fold change vs veh, ZNF268 / Fold change vs veh, ZNF507 / RFU, DGCR2 / Fold change vs veh, DGCR2 / RFU, WDSUB1 / Fold change vs veh, WDSUB1 / Fold change vs veh, HSP90B1 /// MIR3652 / RFU, ADSS / Fold change vs veh, ADSS / RFU, GK / Fold change vs veh, GK / RFU, ZNF148 / Fold change vs veh, ZNF148 / RFU, TAF9 / Fold change vs veh, TAF9 / RFU, SLC1A5 / Fold change vs veh, SLC1A5 / RFU, SLMO2 / Fold change vs veh, SLMO2 / RFU, ABCC4 / Fold change vs veh, ABCC4 / RFU, LOC101060439 /// RAP1B / Fold change vs veh, LOC101060439 /// RAP1B / RFU, RFX7 / Fold change vs veh, RFX7 / RFU, GTPBP10 / Fold change vs veh, GTPBP10 / RFU, CNEP1R1 / Fold change vs veh, CNEP1R1 / RFU, BIVM-ERCC5 /// ERCC5 / Fold change vs veh, BIVM-ERCC5 /// ERCC5 / RFU, ILF3 / Fold change vs veh, ILF3 / RFU 11762660_at / Fold change /veh 11762660_at / RFU VCAN (11757783_s_at) / Fold change /veh VCAN (11757783_s_at) / RFU DDX43 (11728927_at) / Fold change /veh DDX43 (11728927_at) / RFU KRT8 (11758188_x_at) / Fold change /veh KRT8 (11758188_x_at) / RFU NKD1 (11759106_at) / Fold change /veh NKD1 (11759106_at) / RFU SRD5A1 (11742802_a_at) / Fold change /veh SRD5A1 (11742802_a_at) / RFU TPSAB1 /// TPSB2 (11721975_s_at) / Fold change /veh TPSAB1 /// TPSB2 (11721975_s_at) / RFU GSTM3 (11746129_a_at) / Fold change /veh GSTM3 (11746129_a_at) / RFU IL23R (11737362_x_at) / Fold change /veh IL23R (11737362_x_at) / RFU TMEM51 (11727254_a_at) / Fold change /veh TMEM51 (11727254_a_at) / RFU PIWIL2 (11732686_x_at) / Fold change /veh PIWIL2 (11732686_x_at) / RFU ORM1 (11744905_x_at) / Fold change /veh ORM1 (11744905_x_at) / RFU CCDC152 (11743942_at) / Fold change /veh CCDC152 (11743942_at) / RFU ECM1 (11717891_a_at) / Fold change /veh ECM1 (11717891_a_at) / RFU IL23R (11748794_a_at) / Fold change /veh IL23R (11748794_a_at) / RFU TNFAIP8L3 (11732012_x_at) / Fold change /veh TNFAIP8L3 (11732012_x_at) / RFU MBOAT4 (11741988_at) / Fold change /veh MBOAT4 (11741988_at) / RFU 11764193_at / Fold change /veh 11764193_at / RFU TMEM53 (11763286_at) / Fold change /veh TMEM53 (11763286_at) / RFU MAGEB2 (11727129_at) / Fold change /veh MAGEB2 (11727129_at) / RFU TMEM200A (11744735_a_at) / Fold change /veh TMEM200A (11744735_a_at) / RFU CCDC152 (11751479_a_at) / Fold change /veh CCDC152 (11751479_a_at) / RFU FAM211A (11726209_a_at) / Fold change /veh FAM211A (11726209_a_at) / RFU RGS16 (11746705_a_at) / Fold change /veh RGS16 (11746705_a_at) / RFU VCAN (11755009_s_at) / Fold change /veh VCAN (11755009_s_at) / RFU RHOB (11743442_s_at) / Fold change /veh RHOB (11743442_s_at) / RFU RGS16 (11720943_a_at) / Fold change /veh RGS16 (11720943_a_at) / RFU RGS16 (11720944_at) / Fold change /veh RGS16 (11720944_at) / RFU, VPS4B / Fold change vs veh, VPS4B / RFU, CREB1 / Fold change vs veh, CREB1 / RFU, DNAJC13 / Fold change vs veh, DNAJC13 / RFU, GNAQ / Fold change vs veh, GNAQ / RFU, CDK5R1 / Fold change vs veh, CDK5R1 / RFU, ZRANB3 / Fold change vs veh, ZRANB3 / RFU, CUL4A / Fold change vs veh, CUL4A / RFU, CCNY / Fold change vs veh, CCNY / RFU, UFL1 / Fold change vs veh, UFL1 / RFU, COG3 / Fold change vs veh, COG3 / RFU, DIAPH2 / Fold change vs veh, DIAPH2 / RFU, SKA2 / Fold change vs veh, SKA2 / RFU, AFF3 / Fold change vs veh, AFF3 / RFU, LMF1 / Fold change vs veh, LMF1 / RFU, IPO11 / Fold change vs veh, IPO11 / RFU, DFFB / Fold change vs veh, DFFB / RFU, FOXP1 / Fold change vs veh, FOXP1 / RFU, CARD8 / Fold change vs veh, CARD8 / RFU, STRN3 / Fold change vs veh, STRN3 / RFU, ADK / Fold change vs veh, ADK / RFU, RASSF2 / Fold change vs veh, RASSF2 / RFU, WIPF1 / Fold change vs veh, WIPF1 / RFU, LARP1B / Fold change vs veh, LARP1B / RFU, RASA1 / Fold change vs veh, RASA1 / RFU, RB1 / Fold change vs veh, RB1 / RFU, PPFIA1 / Fold change vs veh, PPFIA1 / RFU, MAT2A / Fold change vs veh, MAT2A / RFU, CCT5 / Fold change vs veh, CCT5 / RFU, WDR92 / Fold change vs veh, WDR92 / RFU, CUX1 / Fold change vs veh, CUX1 / RFU, TTC7A / Fold change vs veh, TTC7A / RFU, TMEM135 / Fold change vs veh, TMEM135 / RFU, DEPTOR / Fold change vs veh, DEPTOR / RFU, CPM / Fold change vs veh, CPM / RFU, DNAJB6 / Fold change vs veh, DNAJB6 / RFU, CACNA2D3 / Fold change vs veh, CACNA2D3 / RFU, DTX4 / Fold change vs veh, DTX4 / RFU, TFCP2 / Fold change vs veh, TFCP2 / RFU, GMCL1 /// GMCL1P1 / Fold change vs veh, GMCL1 /// GMCL1P1 / RFU, AEBP2 / Fold change vs veh, AEBP2 / RFU, SNHG1 /// SNORD22 /// SNORD25 /// SNORD26 /// SNORD27 /// SNORD28 /// SNORD29 /// SNORD31 / Fold change vs veh, SNHG1 /// SNORD22 /// SNORD25 /// SNORD26 /// SNORD27 /// SNORD28 /// SNORD29 /// SNORD31 / Fold change (Aza/veh), C12orf56 (ProbeSet 11735607_a_at) / Fold change (ACY-1035/veh), C12orf56 (ProbeSet 11735607_a_at) / Fold change (Aza/veh), FGFR1OP (ProbeSet 11751329_s_at) / Fold change (ACY-1035/veh), FGFR1OP (ProbeSet 11751329_s_at) / Fold change (Aza/veh), VPS36 (ProbeSet 11739960_a_at) / Fold change (ACY-1035/veh), VPS36 (ProbeSet 11739960_a_at) / RFU SYPL1 (11715823_x_at) / Fold change /veh SYPL1 (11715823_x_at) / RFU IGFBP7 (11715501_s_at) / Fold change /veh IGFBP7 (11715501_s_at) / RFU REEP3 (11722064_at) / Fold change /veh REEP3 (11722064_at) / RFU IGLL1 (11728026_x_at) / Fold change /veh IGLL1 (11728026_x_at): dose or concentration left out as unconfirmed. Conditions: MV-4-11 cells, 48 hours.

For `Nc1ncn([C@@H]2O[C@H](CO)[C@@H](O)[C@H]2O)c(=O)n1` [azacitidine], the “Fold change /veh TMPRSS4 (11747572_a_at)” value stood at 1.01.
